# Values of other authors in article PMC7395068, “The evolution of strategies to minimise the risk of human drug-induced liver injury (DILI) in drug discovery and development” (Archives of Toxicology, 2020).
# Where two headings read alike, the source gives them in different places.
# Tests used:
# [1] = cited from earlier work
# [2] = cited from earlier work; remark: listed apart in the source
# human hepatocytes = conditions: cited from earlier work
# [3] = assignment in Xu 2008, ref Xu 2008
# [4] = human hepatocyte imaging, ref Xu 2008
# [5] = binary in vivo human DILI call, ref Chen 2016
# [6] = human DILI, LTKB DILIrank category, ref Chen 2016
Compound,"DILI +VE (5-8), DILI -VE (-4) ([1]; ref Chen 2016)",DILI severity category ([1]; ref Chen 2016),In vivo DILI ([2]; ref Xu 2008),"Structural based (HCI) (human hepatocytes; In vitro Assay, ref Xu 2008)",other results
CN[C@@H](C)[C@@H](O)c1ccccc1 [pseudoephedrine],,,,,"DILI +VE (5-8), DILI -VE (-4) ([1]; in vivo): -VE; DILI severity category ([1]; in vivo): vNo-DILI-Concern; In vivo DILI ([2]; in vivo): -VE; Structural based (HCI), In vitro Assay (human hepatocytes): -VE"
CC(COc1ccccc1)NC(C)C(O)c1ccc(O)cc1 (stereo not drawn) [isoxsuprine],,,,,"DILI +VE (5-8), DILI -VE (-4) ([1]; in vivo): -VE; DILI severity category ([1]; in vivo): vNo-DILI-Concern; In vivo DILI ([2]; in vivo): -VE; Structural based (HCI), In vitro Assay (human hepatocytes): -VE"
N[C@@H]1C[C@H]1c1ccccc1 (racemic) [tranylcypromine],,,,,"DILI +VE (5-8), DILI -VE (-4) ([1]; binary in vivo DILI call given beside the severity category, ref Chen 2016): +VE; DILI severity category ([1]; human DILI concern category (LTKB DILIrank), ref Chen 2016): vLess-DILI-Concern; In vivo DILI [2, 3]: -VE; Structural based (HCI), In vitro Assay (human hepatocytes; [4]): -VE"
CN[C@H]1CC[C@@H](c2ccc(Cl)c(Cl)c2)c2ccccc21 [sertraline],+VE,vLess-DILI-Concern,-VE,-VE,In vivo DILI ([2]; […]): -VE
CC(=O)[C@]1(O)Cc2c(O)c3c(c(O)c2[C@@H](O[C@H]2C[C@H](N)[C@H](O)[C@H](C)O2)C1)C(=O)c1ccccc1C3=O [idarubicin],,,,,"DILI +VE (5-8), DILI -VE (-4) [1, 5]: -VE; DILI severity category [1, 6]: Ambiguous DILI-concern; In vivo DILI [2, 3]: -VE; Structural based (HCI), In vitro Assay (human hepatocytes; [4]): -VE"
CN/C(=N/CCSCc1nc[nH]c1C)NC#N [cimetidine],+VE,vLess-DILI-Concern,-VE,-VE,In vivo DILI ([2]; […]): +VE
bacitracin,-VE,vNo-DILI-Concern,-VE,-VE,
CC(=O)S[C@@H]1CC2=CC(=O)CC[C@]2(C)[C@H]2CC[C@@]3(C)[C@@H](CC[C@@]34CCC(=O)O4)[C@H]12 [spironolactone],+VE,vLess-DILI-Concern,+VE,+VE,
NS(=O)(=O)c1cc2c(cc1Cl)NCNS2(=O)=O [hydrochlorothiazide],,,,,"DILI +VE (5-8), DILI -VE (-4) ([1]; in vivo): +VE; DILI severity category ([1]; in vivo): vLess-DILI-Concern; In vivo DILI ([2]; in vivo): +VE; Structural based (HCI) (human hepatocytes): +VE"
C[C@H](CCC(=O)O)[C@H]1CC[C@H]2[C@@H]3[C@@H](O)C[C@@H]4C[C@H](O)CC[C@]4(C)[C@H]3CC[C@]12C [ursodeoxycholic acid],-VE,Ambiguous DILI-concern,-VE,-VE,
CN1CCC(=C2c3ccccc3C=Cc3ccccc32)CC1 [cyproheptadine],+VE,vLess-DILI-Concern,+VE,+VE,
CC(=O)OCC[N+](C)(C)C [acetylcholine chloride],-VE,vNo-DILI-Concern,-VE,-VE,
COc1cc([C@@H]2c3cc4c(cc3[C@@H](O[C@@H]3O[C@@H]5CO[C@@H](C)O[C@H]5[C@H](O)[C@H]3O)[C@H]3COC(=O)[C@H]23)OCO4)cc(OC)c1O [etoposide],+VE,vLess-DILI-Concern,+VE,-VE,In vivo DILI ([2]; […]): +VE; In vivo DILI ([2]; ref O'Brien 2006): +VE; In vivo DILI ([2]; ref Persson 2013): +VE; In vivo DILI ([2]; ref Tolosa 2012): +VE
COC(=O)Nc1nc2ccccc2[nH]1 [carbendazim],,,,,In vivo DILI ([2]; in vivo): +VE; Structural based (HCI) (human hepatocytes): -VE
C=C1[C@@H]2CC[C@H]3[C@]4(C)C[C@H](O[C@@H]5O[C@H](CO)[C@@H](OS(=O)(=O)O)[C@H](OS(=O)(=O)O)[C@H]5OC(=O)CC(C)C)C[C@@H](C(=O)O)[C@H]4CC[C@]3(C2)[C@H]1O [atractyloside],,,+VE,+VE,
O.O=[N+]([O-])[O][Ga]([O][N+](=O)[O-])[O][N+](=O)[O-] [gallium nitrate hydrate],,,,,"In vivo DILI [2, 3]: -VE; Structural based (HCI), In vitro Assay (human hepatocytes; [4]): -VE"
NC1CCN(c2c(F)cc3c(=O)c(C(=O)O)cn(C4CC4)c3c2Cl)C1 (stereo not drawn) [clinafloxacin],,,-VE,-VE,
N#CC(C#N)=NNc1ccc(OC(F)(F)F)cc1 [fccp],,,+VE,+VE,In vivo DILI ([2]; ref O'Brien 2006): +VE

Compound,"DILI +VE (5-8), DILI -VE (-4) ([1]; ref Chen 2016)",DILI severity category ([1]; ref Chen 2016),In vivo DILI ([2]; ref Xu 2008),"Structural based (HCI) (human hepatocytes; In vitro Assay, ref Xu 2008)",other results
CC1=C(/C=C/C(C)=C/C=C/C(C)=C/C(=O)O)C(C)(C)CCC1 [retinoic acid],,,+VE,+VE,In vivo DILI ([2]; […]): +VE
Nc1nc(Cl)nc2c1ncn2[C@H]1C[C@H](O)[C@@H](CO)O1 [cladribine],-VE,Ambiguous DILI-concern,-VE,-VE,
NCC1(CC(=O)O)CCCCC1 [gabapentin],+VE,vLess-DILI-Concern,-VE,-VE,In vivo DILI ([2]; ref Vorrink 2018): -VE
CN(C)CCCN1c2ccccc2Sc2ccccc21 [promazine],,,,,"In vivo DILI [2, 3]: -VE; Structural based (HCI), In vitro Assay (human hepatocytes; [4]): -VE"
CCO.C[C@H]1c2cccc(O)c2C(O)=C2C(=O)[C@]3(O)C(O)=C(C(N)=O)C(=O)[C@@H](N(C)C)[C@@H]3[C@@H](O)[C@@H]21.C[C@H]1c2cccc(O)c2C(O)=C2C(=O)[C@]3(O)C(O)=C(C(N)=O)C(=O)[C@@H](N(C)C)[C@@H]3[C@@H](O)[C@@H]21.Cl.Cl.O [doxycycline hyclate],,,,,In vivo DILI ([2]; in vivo): +VE; Structural based (HCI) (human hepatocytes): +VE
Cc1ccc(C)c(OCCCC(C)(C)C(=O)O)c1 [gemfibrozil],+VE,vMost-DILI-Concern,+VE,+VE,
C[C@H]1C[C@H]2[C@@H]3CCC4=CC(=O)C=C[C@]4(C)[C@@]3(Cl)[C@@H](O)C[C@]2(C)[C@@]1(O)C(=O)CO [beclomethasone],,,,,In vivo DILI ([2]; in vivo): -VE; Structural based (HCI) (human hepatocytes): -VE
C=C1CC[C@@]2(O)[C@H]3Cc4ccc(O)c5c4[C@@]2(CCN3CC2CC2)[C@H]1O5 [nalmefene],,,,,"In vivo DILI [2, 3]: -VE; Structural based (HCI), In vitro Assay (human hepatocytes; [4]): -VE"
CN1CCCCC1CCN1c2ccccc2Sc2ccc([S+](C)[O-])cc21 (stereo not drawn) [mesoridazine besylate],,,,,"In vivo DILI [2, 3]: +VE; Structural based (HCI), In vitro Assay (human hepatocytes; [4]): -VE"
COc1ccc(C[C@H](N)C(=O)N[C@H]2[C@@H](O)[C@H](n3cnc4c(N(C)C)ncnc43)O[C@@H]2CO)cc1 [puromycin],,,,,"In vivo DILI [2, 3]: +VE; Structural based (HCI), In vitro Assay (human hepatocytes; [4]): +VE"
CN(C)CCCC1(c2ccc(F)cc2)OCc2cc(C#N)ccc21 (stereo not drawn) [citalopram],,,,,"DILI +VE (5-8), DILI -VE (-4) ([1]; in vivo): +VE; DILI severity category ([1]; in vivo): vLess-DILI-Concern; In vivo DILI ([2]; in vivo): -VE; Structural based (HCI) (human hepatocytes): -VE"
CN(C)[C@@H]1C(O)=C(C(N)=O)C(=O)[C@@]2(O)C(O)=C3C(=O)c4c(O)ccc(Cl)c4[C@@H](O)[C@H]3C[C@@H]12 [demeclocycline],,,+VE,-VE,"DILI +VE (5-8), DILI -VE (-4) [1, 5]: -VE; DILI severity category [1, 6]: Ambiguous DILI-concern"
CC(Cc1ccc(O)cc1)NCC(O)c1cc(O)cc(O)c1 (stereo not drawn) [fenoterol hbr],,,,,In vivo DILI ([2]; in vivo): +VE; Structural based (HCI) (human hepatocytes): -VE
CC(=O)c1ccc(S(=O)(=O)NC(=O)NC2CCCCC2)cc1 [acetohexamide],,,+VE,+VE,
CC(=O)O[C@]1(C(C)=O)CC[C@H]2[C@@H]3C[C@H](C)C4=CC(=O)CC[C@]4(C)[C@H]3CC[C@@]21C [medroxyprogesterone acetate],,,,,"In vivo DILI [2, 3]: -VE; Structural based (HCI), In vitro Assay (human hepatocytes; [4]): -VE"
CC(C(=O)O)c1cccc(Oc2ccccc2)c1 (stereo not drawn) [fenoprofen sodium],,,+VE,+VE,
N[C@H]1C(O)O[C@H](CO)[C@H](O)[C@@H]1O (stereo partly drawn) [d-galactosamine],,,,,In vivo DILI ([2]; in vivo): +VE; Structural based (HCI) (human hepatocytes): -VE
[Cl][Cd][Cl] [cadmium chloride],,,+VE,+VE,
